Where “and” joins values, the source holds several entries; their conditions need not be identical. Equal values may be shown once. Entries after “also recorded” stand apart in the source; their conditions may differ.
Assays:
[1] = system: Daphnia magna; experiment: Daphnia magna acute 48 h immobilization assay (Daphtoxkit); assay type: in vivo; settings: 48 h
Method: Six concentration levels (5 concentrations plus control, four replicate beakers for each concentrations, five individual for each beaker) were tested. […] Each experiment was repeated in triplicate.

[2] = system: Tetrahymena thermophila; experiment: microbe, parasite or virus in culture; assay type: cell-based
Method: The tests were performed in accordance with the protocols provided by the manufacturer. […] The tests were carried out in disposable spectrophotometric cells of 1 cm path-length, to enable the measurement of the optical density (OD) at 440 nm. […] This change in OD over the time period is used to quantify the degree of inhibition and subsequent calculation of the EC50. Each concentration was repeated in duplicate.

[3] = Activated sludge simulating microcosms (degradation of FL, formation of NFL); assay type: physicochemical; settings: for transformation / removal: 100 µg L^−1 microcosm, 24 h
Method: Activated sludge microcosm experiments were conducted in the dark and aerobic conditions. Three microcosm bioreactors were investigated in duplicate. They were filled with 2 L of fresh activated sludge collected from a local wastewater treatment plant. […] Dark conditions were simulated by covering up the flask with foil. Aerobic conditions were obtained using air from BOC air cylinder and a thorough mixing was maintained using magnetic stirrers. The experiment was 24 hours long. […] Collected samples were subsequently frozen until their analysis to prevent degradation of compounds.
The compounds studied are characterized as having low volatility and therefore volatilization was not considered as a potential removal pathway in studied microcosms. Photodegradation was also not considered (not relevant) under tested activated sludge conditions. Therefore the two important degradation mechanisms to consider were biodegradation and sorption to sludge. […] However, in this study, sorption equilibrium was assumed and therefore sorption could be considered negligible. This is because sorption is assumed to be fast when compared to biological degradation.
Several reports utilized pseudo-first-order kinetics for degradation of micropollutants in activated sludge reactors[48]–[50]. […] Pseudo-first order biodegradation rate k1 [L g^−1h^−1]

[4] = system: P. promelas; settings: ref [34]; cited from earlier work
[5] = system: D. magna; settings: ref [34]; cited from earlier work
[6] = River water simulating microcosms (degradation of FL); settings: river water, 1 µg L^−1 racemic FL, 16 days
[7] = 100 µg L^−1, pseudo-first order

| SMILES | Average effect (N immobile, 5 daphnids per replicate) ([1]; concentration 0.5) | Average effect (N immobile, 5 daphnids per replicate) ([1]; concentration 1.5) | Average effect (N immobile, 5 daphnids per replicate) ([1]; concentration 5) | Average effect (N immobile, 5 daphnids per replicate) ([1]; concentration 16) | Average effect (N immobile, 5 daphnids per replicate) ([1]; concentration 50) | % I (percentage inhibition) ([2]; range test, conc. 0.005) [%] | % I (percentage inhibition) ([2]; range test, conc. 0.050) [%] | % I (percentage inhibition) ([2]; range test, conc. 0.500) [%] | % I (percentage inhibition) ([2]; range test, conc. 5.000) [%] | kbiol ([3]; 100 µg L^−1) [LgSS ^−1h^−1] | t1/2biol ([3]; 100 µg L^−1) | k1 [3, 7] [h⁻¹] | transformation / removal [3] [%] | LOEC7d -feeding [4] [mg/L] | LOEC7d -growth [4] [mg/L] | LOEC7d -survival [4] [mg/L] | LOEC21d -grazing [5] | LOEC21d -immobilization [5] [mg/L] | LOEC21d -reproduction [5] [mg/L] | removal of FL ([6]; dark biotic conditions (DBR)) [%] | also measured |
| --- | --- | --- | --- | --- | --- | --- | --- | --- | --- | --- | --- | --- | --- | --- | --- | --- | --- | --- | --- | --- | --- |
| CNCC[C@H](Oc1ccc(C(F)(F)F)cc1)c1ccccc1 [(S)-FL] | 0.25 | 1 | 3.25 | 5 | 5 | 22.617 | 21.857 | 26.510 | 26.130 | 0.04 | 19 h and 19.4 h | 0.07 | 80 | 0.05 | 0.05 | 0.10 | 0.20 mg/L | 0.44 | 0.44 | 60.4 | % I (percentage inhibition) ([2]; definitive test, conc. 0.104): -1.720%; % I (percentage inhibition) ([2]; definitive test, conc. 0.313): 4.194%; % I (percentage inhibition) ([2]; definitive test, conc. 0.535): 0.108%; % I (percentage inhibition) ([2]; definitive test, conc. 10.446): 7.204%; % I (percentage inhibition) ([2]; definitive test, conc. 20.892): 22.366%; % I (percentage inhibition) ([2]; definitive test, conc. 68.945): 73.441%; % I (percentage inhibition) ([2]; definitive test, conc. 104.462): 83.118%; % I (percentage inhibition) ([2]; range test, conc. 50.000): 57.653%; kbiol ([3]; 10 µg L^−1): 0.04 LgSS ^−1h^−1; t1/2biol ([3]; 10 µg L^−1): 19 h and 18.9 h; k1 ([3]; 10 µg L^−1, pseudo-first order): 0.07 h⁻¹; removal of FL ([6]; light abiotic conditions (LAR)): 74.5%; removal of FL ([6]; light biotic reactor (LBR)): 98.4% |
| CNCC[C@@H](Oc1ccc(C(F)(F)F)cc1)c1ccccc1 [(R)-FL, (R)-N-Methyl-3-(4-trifluoromethylphenoxy)-3-phenylpropylamine] | 0 | 0.25 | 3.25 | 5 | 5 | -3.105 | 5.433 | -1.164 | 39.974 | 0.01 | 68 h and 68.0 h | 0.02 | 38 | 0.17 | 0.17 | 0.17 | none | 0.43 | 0.43 | 67.9 | times more toxic than (S)-FL ([2]; Tetrahymena thermophila): 30 ×; % I (percentage inhibition) ([2]; definitive test, conc. 0.086): -8.032%; % I (percentage inhibition) ([2]; definitive test, conc. 24.098): 91.516%; % I (percentage inhibition) ([2]; definitive test, conc. 79.522): 90.724%; degradation ([3]; 10 µg L^−1): lack of degradation; also recorded: No degradation; removal of FL ([6]; light abiotic conditions (LAR)): 79.2%; removal of FL ([6]; light biotic reactor (LBR)): 96.7% |
